Data set [1] relates to ROS formation in Neuro2a cells treated with 6-OHDA. The data set can be described thus: ROS level analysis in 6-OHDA-treated cells. The conditions noted are these: for Reduction of ROS level in 6-OHDA-treated cells / Effect on ROS formation in 6-OHDA-treated cells: 10 µM, 6-OHDA 50 µM, 30 min. Format: cell-based. How it is done:
(§1) Cell suspensions (1 × 10^3 cells/well) were incubated with compound solutions (10 µM) for 1 h. Then, 6-OHDA at a concentration of 50 µM was added in each well, and cells were incubated for 30 min. In other experiments, cells were incubated with PQ at a concentration of 500 µM for 30 min and 1 h. Cells incubated without 6-OHDA/PQ and compounds, and with 6-OHDA/PQ only, were used as positive and negative controls, respectively. To study ROS formation, 20 µL of 2,7-dichlorodihydrofluorescein diacetate solution (Molecular Probes, Eugene, OR, USA) was added to each well, such that the final concentration was […], and the microplate was incubated for an additional 10 min at 37 °C. The intensity of dichlorofluorescein fluorescence was measured with plate reader PHERAstar FS (BMG Labtech, Ortenberg, Germany) at λex = 485 nm, and λem = 518 nm. The data were processed by MARS Data Analysis v. 3.01R2 (BMG Labtech, Ortenberg, Germany). The results were presented as a percentage of positive control data.

For data set [2] the following is noted: cited from earlier work.
Data set [3] relates to ROS formation in Neuro2a cells treated with paraquat (PQ). The data set can be described thus: ROS level analysis in PQ-treated cells. Format: cell-based. The conditions noted are these: for Decrease of ROS formation in PQ-treated cells: added 1 h before PQ (500 µM, 1 h). How it is done: as §1, with “Cell suspensions (1 × 10^3 cells/well) were incubated with compound solutions (10 µM) for 1 h.” left out

Data set [4] in a line: DPPH radical scavenger assay (cell-free). The conditions noted are these: for DPPH radicals scavenged: 100 µM. How it is done:
DPPH radical scavenging activity of compounds was tested as described.
Compounds were dissolved in MeOH, and the solutions (160 µL) were dispensed into wells of a 96-well microplate. In all, 40 µL of the DPPH (Sigma-Aldrich, Steinheim, Germany) solution in MeOH (1.5 × 10^−4 M) was added to each well. Concentrations of compounds in mixture were 10 and 100 µM. The mixture was shaken and left to stand for 30 min, and the absorbance of the resulting solution was measured at 520 nm with a microplate reader MultiscanFC (ThermoScientific, Waltham, MA, USA). Radical scavenging activity of all compounds at 100 µM were presented as percent of MeOH data, and the concentration of DPPH radical scavenging at 50% (EC50) was calculated for some compounds.
For orientation: Loss of DPPH colour is used to gauge radical scavenging.

Data set [5] deals with neuroblastoma Neuro2a cells. The data set can be described thus: Cell viability (cytotoxicity) assay, MTT. The conditions noted are these: up to 100 µM. Type of data set: cell-based. How it is done:
(§2) The neuroblastoma cell line Neuro2a was purchased from ATCC. Cells were cultured in DMEM medium containing 10% fetal bovine serum (Biolot, St. Petersburg, Russia) and 1% penicillin/streptomycin (Invitrogen, Carlsbad, CA, USA). Cells were incubated at 37 °C in a humidified atmosphere containing 5% (v/v) CO2.
(§3) Cell suspension (1 × 10^3 cells/well) was incubated with different concentration of compounds for 24 h. After that, cell viability was determined using the MTT (3-(4,5-dimethylthiazol-2-yl)-2,5- diphenyltetrazolium bromide) method, according to the manufacturer’s instructions (Sigma-Aldrich, St. Louis, MO, USA). The results were presented as percent of control data, and concentration required for 50% inhibition of cell viability (IC50) was calculated.

A short description of data set [6]: Cell viability (cytotoxicity) assay, MTT. Type of data set: cell-based. The conditions noted are these: mouse, Neuro2a neuroblastoma cells; Neuro2a cells, 24 h, MTT. How it is done:
as §2, §3

In data set [7] the test system is MPTP-treated neuroblastoma cells. The conditions noted are these: cited from earlier work.
In data set [8] the test system is Neuro2a cells treated with 6-OHDA. The data set can be described thus: 6-Hydroxydopamine-induced in vitro model of Parkinson's disease, cell viability (MTT). The conditions noted are these: for Effect on 6-OHDA-treated cell viability: 10 µM; for Neuroprotective effect in 6-OHDA model at tenfold reduced concentration: 1 µM (concentration reduced tenfold). Format: cell-based. On the procedure: The neuroprotective activities of compounds in 6-hydroxydopamine-induced cell model of Parkinson’s disease were examined, as described previously.
Neuroblastoma Neuro2a line cells (1 × 10^3 cells/well) were treated with 50 µM of 6-hydroxydopamine (Sigma-Aldrich, St. Louis, MO, USA) for 1 h and, after that, the investigated compounds were added to the neuroblastoma cell suspension at a concentration of 1 and 10 µM. In the other case, the substances were added to the cells 1 h before the addition of the neurotoxin. Cells incubated without 6-OHDA and compounds, and with 6-OHDA only, were used as positive and negative controls, respectively. After 24 h, viability of cells was measured using the MTT method. The results were presented as a percent of positive control data.

The test system of data set [9] is PC12 cells. The conditions noted are these: pre-treating for 3 h; cited from earlier work.
Data set [10] relates to Neuro2a cells treated with PQ. The data set can be described thus: Paraquat-induced in vitro model of Parkinson's disease, cell viability (MTT). Format: cell-based. The conditions noted are these: added 1 h before PQ (500 µM). How it is done: Neuroblastoma Neuro2a line cells (1 × 10^3 cells/well) were treated with compounds at concentrations of 1 and 10 µM for 1 h, and then 500 µM of paraquat (Sigma-Aldrich, St. Louis, MO, USA) was added to the neuroblastoma cell suspension. Cells incubated without paraquat and compounds, and with paraquat only, were used as positive and negative controls, respectively. The viability of cells was measured after 24 h using the MTT method. The results were presented as percent of positive control data.

In a further data set the test system is P-388 tumor cells. The conditions noted are these: read-out: Cytotoxic activity IC50; cited from earlier work.
The next data set deals with A-549 tumor cells. The conditions noted are these: read-out: Cytotoxic activity IC50; cited from earlier work.
The subject of a further data set is HL-60 tumor cells. The conditions noted are these: read-out: Cytotoxic activity IC50; cited from earlier work.
In another data set the test system is KB tumor cells. The conditions noted are these: read-out: Cytotoxic activity IC50; cited from earlier work.
A further data set concerns A 549 tumor cells. The conditions noted are these: read-out: Cytotoxic activity IC50; cited from earlier work.
For a further data set, the system named is Candida albicans. The conditions noted are these: cited from earlier work.
The test system of data set [11] is osteoclast differentiation. The conditions noted are these: cited from earlier work.
For data set [12], the system named is dopaminergic neuronal cell death in mouse PD model, nigral neurons, SH-SY5Y cells. The conditions noted are these: cited from earlier work.
In data set [13] the test system is PC12 cells. The conditions noted are these: cited from earlier work.
Setting [14] is: compound added 1 h after 6-OHDA.
Where [15] appears, read: compound added 1 h before 6-OHDA.
The mark [16] stands for this setting: read-out: DPPH scavenger activity IC50.

Entries after “also recorded” stand apart in the source; their conditions may differ. Where two headings read alike, the source gives them in different places.

We go through 15 molecules from PMC6265791, “Neuroprotective Activity of Some Marine Fungal Metabolites in the 6-Hydroxydopamin- and Paraquat-Induced Parkinson’s Disease Models” (Marine Drugs, 2018).

`NCCc1cc(O)c(O)cc1O` [6-OHDA, 6-hydroxydopamine, reference compound]: the “Increase of ROS level in Neuro2a cells by the neurotoxin” value in data set [1] (30 min after addition to the cell suspension) is reported as 30%.

Regarding `COc1c(-c2ccc(O)c(O)c2)cc(OC)c2c1oc1cc(O)c(O)cc12` [Candidusin B, reference compound], the DPPH radical scavenging in [2] (100 µg/mL) was 59%.

Usually IC50 stands for the concentration that inhibits the measured activity by half. Consider `CC(=O)NCC(=O)c1c[nH]c2cc(O)ccc12` [Compound 1, 6-hydroxy-N-acetyl-β-oxotryptamine], for which the “Reduction of ROS level in 6-OHDA-treated cells” value (“Reduction of ROS level” for short) in data set [1] worked out at 18%. Also, the “Decrease of ROS formation in PQ-treated cells” value (from here on “Decrease of ROS formation”) in [3] (10 µM) is on record as 35%. In addition, the “DPPH radicals scavenged” value in data set [4] was found to be 48%. Moreover, the “Cytotoxicity against Neuro2a cells” value in [5] is “not cytotoxic; also recorded: non-cytotoxic”. In [6], this molecule registered an IC50 at 24 h greater than 100 µM.

Turning to `COc1ccc2[nH]cc(CCNC(C)=O)c2c1` [Compound 1a, Melatonin, reference compound], in [1], the “Effect on ROS formation in 6-OHDA-treated cells” value is “decreased ROS formation in the 6-OHDA-treated neuronal cell stronger in comparison with 1”. In addition, the “Caspase-3 enzyme activity, DNA fragmentation factor 45 cleavage and DNA fragmentation” value in data set [7] is “diminished”. The results for the “Effect on 6-OHDA-treated cell viability” value in data set [8] (setting [14]) and in data set [8] (setting [15]) were “did not increase the viability” and “did not increase the viability; also recorded: ineffective”, respectively. In addition, the “Decrease of ROS formation” value in [3] (10 µM) is 22%. Besides, the “Viability of PC12 cells in 6-OHDA-induced PD model” value with PC12 cells [9] was “increased viability of the cells, and prevented apoptosis”.

With `Cc1cc(O)c(C)c(O)c1C(=O)O` [Compound 2, 3-methylorsellinic acid], the “Reduction of ROS level” value in data set [1] is given as 30%. The “Effect on 6-OHDA-treated cell viability” value in [8] (setting [14]) is “no neuroprotective effect”. Besides, in data set [3] (added 1 h before PQ (500 µM)), the “Effect on ROS formation in PQ-treated cells” value is “reduced ROS formation”. The “DPPH radicals scavenged” value in data set [4] turned out to be 10%. The “Effect on viability of PQ-treated cells” value in data set [10] was “did not exhibit any protective effect”. The “Cytotoxicity against Neuro2a cells” value in [5] is “not cytotoxic; also recorded: non-cytotoxic”. Also, the IC50 at 24 h in [6] was greater than 100 µM.

Consider `COc1c(-c2ccc(O)cc2)cc(OC)c2c1oc1cc(O)c(O)cc12` [Compound 4, candidusin A], for which the “Effect on ROS formation in 6-OHDA-treated cells” value in data set [1] is recorded as “did not have any effect”. For the same molecule, in [8] (setting [15]), the “Effect on 6-OHDA-treated cell viability” value was “had no effect”. Besides, in data set [3] (10 µM), the “Decrease of ROS formation” value stood at 27%. The “DPPH radicals scavenged” value in data set [4] came out at 32%. For the same molecule, the “Effect on viability of PQ-treated cells” value in data set [10] is “did not have any effect”. Also, the IC50 with P-388 tumor cells was 46.8 µM; in the data set on A-549 tumor cells, 19.3 µM; with HL-60 tumor cells it was 77.6 µM. The molecule also registered an IC50 at 24 h in data set [6] of 75.7 ± 5.6 µM.

For orientation: EC50 means the concentration that produces a half-maximal response. A low value points to greater potency. Consider `COc1c(-c2ccccc2)cc(OC)c2c1oc1cc(O)c(O)cc12` [Compound 5, 4″-dehydroxycandidusin A], for which the “Reduction of ROS level” value in data set [1] came to 34%. Also, the “Neuroprotective effect in 6-OHDA model at tenfold reduced concentration” value in data set [8] is reported as “neuroprotective effect was not preserved”. The figures for the “Decrease of ROS formation” value in [3] (1 µM) and in [3] (10 µM) were 19% and 40%, respectively. For the same molecule, the “DPPH radicals scavenged” value in data set [4] is recorded as 49%. A half-maximal effect in data set [4] (concentration of DPPH radical scavenging at 50%) (EC50) was put at 101 ± 2.8 µM. This molecule also gave an IC50 at 24 h in data set [6] of 78.9 ± 1.9 µM. Besides, the IC50 with KB tumor cells was 22.7 µM; in the data set with A 549 tumor cells, 34 µM.

Regarding `CN1C(=O)C(Cc2c(O)cccc2O)NC(=O)C1Cc1ccccc1` (stereo not drawn) [Compound 6, mactanamide], the “Reduction of ROS level” value in [1] turned out to be 30%. Moreover, in data set [8], the “Neuroprotective effect in 6-OHDA model at tenfold reduced concentration” value is “neuroprotective effect was preserved”. Also, the results for the “Decrease of ROS formation” value in [3] (1 µM) and in data set [3] (10 µM) were 32% and 37%, respectively. Moreover, the “DPPH radicals scavenged” value in data set [4] is recorded as 15%. Besides, the “Effect on viability of PQ-treated cells” value in data set [10] is listed as “did not show any neuroprotective activity”. Besides, in the data set with Candida albicans, the “Activity against Candida albicans” value is given as “fungistatic activity”. Besides, in [5], the “Cytotoxicity against Neuro2a cells” value was “not cytotoxic; also recorded: non-cytotoxic”. Further, the IC50 at 24 h in [6] is greater than 100 µM. Moreover, in [11], the “Influence on osteoclast differentiation” value is recorded as “influence on osteoclast differentiation without any cytotoxicity”.

For `CN1C(=O)[C@]23CC4=CC=C[C@H](O)[C@H]4N2C(=O)[C@@]1(CO)SS3` [Gliotoxin], the IC50 in [2] (setting [16]) is 5.2 µM.

Take `C[n+]1ccc(-c2cc[n+](C)cc2)cc1` [PQ, paraquat]: in data set [3] (1 h after adding to the cell suspension), the “Increase of ROS levels in Neuro2a cells by the neurotoxin” value is 39%. Further, the “Effect on ROS formation in Neuro2a cells” value in data set [3] (after 30 min) was “insignificant”.

`COC(=O)[C@]12Oc3ccc(-c4ccc5c(c4O)C(=O)C4=C(O)C[C@@H](C)[C@H](O)[C@@]4(C(=O)OC)O5)c(O)c3C(=O)C1=C(O)C[C@@H](C)[C@@H]2O` [Secalonic acid A]: the “Protection against MPTP-induced dopaminergic neuronal cell death” value in data set [12] is “protected”.

`OCc1cc(O)c(Cc2cc(O)ccc2O)c(Cl)c1O` [Terrestrol G]: the IC50 in data set [2] (read-out: DPPH-scavenging IC50) was 4.1 µM.

Turning to `C[C@H]1CO[C@]2(C)Oc3cc(O)c4c(c3C[C@H]12)O[C@@]1(C)OC[C@H](C)[C@H]1C4` [Xyloketal B], the “Free radical scavenging in DPPH assay” value in data set [2] is reported as “scavenged free radicals”. In the data set on PC12 cells [13], the “Protection of PC12 cells against ischemia-induced cell injury and MPTP-induced neurotoxicity” value is given as “protected”.

As for cryptoechinulin D, the IC50 in data set [2] (setting [16]) is 23.6 µM.

For neoechinulin E, the IC50 in data set [2] (setting [16]) was 46 µM.
